Reference: ChEMBL document CHEMBL1201862, “PubChem BioAssay data set” (2004)
Blank lines part the entries; values can stand above or below the compound they belong to. Active and inactive are the calls of the source.

What was measured:
HEK293 = assay: Fluorescence-based counterscreen for potentiators or agonists of NPY-Y2: cell-based high-throughput dose response assay to identify inhibitors of cyclic nucleotide gated ion channel (CNGC) activity. In this assay, the parental HEK293 cell line transfected with a cyclic-nucleotide gated ion channel (CNGC)-based cAMP sensor is used to measure inhibition of isoproterenol-induced CNGC activity by test compound.; type: functional; settings: Homo sapiens;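 further: stimulus is 1 µM isoproterenol at EC100 plus PDE inhibitor Ro 20-1724 at 25 µM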
[1] = target: T1, Neuropeptide Y receptor type 1 (Homo sapiens, UniProt P25929); assay: Fluorescence-based counterscreen for agonists of NPY-Y2: cell-based high-throughput dose response assay for agonists of NPY-Y1.; type: functional
T1 sequence (P25929 whole entry): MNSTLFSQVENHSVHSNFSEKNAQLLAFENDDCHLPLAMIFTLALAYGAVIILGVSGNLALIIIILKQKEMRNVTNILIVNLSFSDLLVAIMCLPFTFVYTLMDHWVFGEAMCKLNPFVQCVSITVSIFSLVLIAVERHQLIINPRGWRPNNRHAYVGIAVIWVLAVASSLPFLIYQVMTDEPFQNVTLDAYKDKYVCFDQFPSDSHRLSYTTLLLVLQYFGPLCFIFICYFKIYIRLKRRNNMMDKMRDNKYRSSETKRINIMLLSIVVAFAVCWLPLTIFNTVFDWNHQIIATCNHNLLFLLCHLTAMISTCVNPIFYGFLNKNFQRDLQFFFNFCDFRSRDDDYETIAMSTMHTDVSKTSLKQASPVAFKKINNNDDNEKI

[2] = target: T2, Neuropeptide Y receptor type 2 (Homo sapiens, UniProt P49146); assay: Fluorescence-based cell-based high-throughput dose response assay for agonists of NPY-Y2. [Related pubchem assays: 1703 (Screening assay (CNGC inhibitors).), 1359 (Screening assay (NPY-Y2 potentiators or agonists).), 1304 (Screening assay (NPY-Y1 potentiators or agonists).), 1710 (Screening assay (NPY-Y2 agonists).), 1791 (Summary AID.)]; type: functional
T2 sequence (P49146 whole entry): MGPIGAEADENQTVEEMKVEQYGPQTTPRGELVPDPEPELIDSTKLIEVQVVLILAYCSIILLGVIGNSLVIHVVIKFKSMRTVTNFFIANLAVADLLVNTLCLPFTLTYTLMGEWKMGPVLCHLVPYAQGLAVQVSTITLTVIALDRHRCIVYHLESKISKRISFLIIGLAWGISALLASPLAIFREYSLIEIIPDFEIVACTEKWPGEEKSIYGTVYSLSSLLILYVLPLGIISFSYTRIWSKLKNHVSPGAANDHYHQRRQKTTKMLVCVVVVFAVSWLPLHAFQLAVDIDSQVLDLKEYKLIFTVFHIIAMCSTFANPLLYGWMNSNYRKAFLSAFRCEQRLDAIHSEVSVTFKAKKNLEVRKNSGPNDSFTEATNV

[3] = target: Lysosomal acid glucosylceramidase (Homo sapiens, UniProt P04062); assay: Dose response cell-based high throughput screening assay to identify enhancers of beta-glucosidase activity. [Related pubchem assays: 784 ]; type: functional
Chain of Lysosomal acid glucosylceramidase (P04062 whole entry): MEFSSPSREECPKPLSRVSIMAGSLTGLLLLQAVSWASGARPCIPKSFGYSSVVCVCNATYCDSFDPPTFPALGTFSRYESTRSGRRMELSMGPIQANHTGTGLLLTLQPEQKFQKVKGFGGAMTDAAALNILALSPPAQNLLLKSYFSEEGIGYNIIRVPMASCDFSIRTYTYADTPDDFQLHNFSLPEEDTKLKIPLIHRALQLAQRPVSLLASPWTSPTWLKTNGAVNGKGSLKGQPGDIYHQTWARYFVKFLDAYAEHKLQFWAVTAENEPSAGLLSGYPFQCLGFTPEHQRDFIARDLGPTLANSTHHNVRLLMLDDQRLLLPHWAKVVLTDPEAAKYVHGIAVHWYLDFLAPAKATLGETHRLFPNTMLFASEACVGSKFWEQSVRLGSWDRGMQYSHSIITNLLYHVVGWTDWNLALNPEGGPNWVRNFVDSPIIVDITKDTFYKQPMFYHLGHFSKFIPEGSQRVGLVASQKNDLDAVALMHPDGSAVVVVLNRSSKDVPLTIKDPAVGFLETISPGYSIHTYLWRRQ

Cytochrome P450 2D6 = Cytochrome P450 2D6 (Homo sapiens, UniProt P10635); assay: qHTS Assay for Inhibitors and Substrates of Cytochrome P450 2D6. [Related pubchem assays: 410 ]; type: ADME; settings: read-out: Potency
[4] = target: Polyadenylate-binding protein 1 (Homo sapiens, UniProt P11940); assay: blockers of PABP interaction with poly(A) – biochemical, fluorescence polarization, […] (AID 2014)
Chain of Polyadenylate-binding protein 1 (P11940 whole entry): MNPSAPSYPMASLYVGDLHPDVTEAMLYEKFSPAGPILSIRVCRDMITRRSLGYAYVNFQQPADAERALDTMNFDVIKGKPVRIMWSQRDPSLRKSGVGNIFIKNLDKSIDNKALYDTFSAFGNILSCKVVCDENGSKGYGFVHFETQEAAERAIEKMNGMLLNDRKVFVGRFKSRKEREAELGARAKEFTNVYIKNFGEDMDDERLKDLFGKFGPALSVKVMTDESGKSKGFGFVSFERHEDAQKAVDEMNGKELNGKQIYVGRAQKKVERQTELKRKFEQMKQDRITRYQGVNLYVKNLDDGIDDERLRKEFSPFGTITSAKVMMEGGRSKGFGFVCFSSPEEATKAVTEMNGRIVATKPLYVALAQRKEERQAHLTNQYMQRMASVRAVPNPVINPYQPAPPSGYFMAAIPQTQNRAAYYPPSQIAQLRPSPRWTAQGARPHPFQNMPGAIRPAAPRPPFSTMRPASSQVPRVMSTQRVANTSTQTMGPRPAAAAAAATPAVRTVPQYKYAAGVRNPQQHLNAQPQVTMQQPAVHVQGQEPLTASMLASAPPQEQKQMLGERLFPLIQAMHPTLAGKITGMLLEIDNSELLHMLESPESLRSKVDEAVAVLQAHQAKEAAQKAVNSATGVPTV

[5] = target: Eukaryotic translation initiation factor 4H (Homo sapiens, UniProt Q15056); assay: eIF4H binding inhibition – biochemical, uHTS, fluorescence polarization, translation initiation inhibitor project, primary screen (AID 2012)
Cytochrome P450 3A4 = Cytochrome P450 3A4 (Homo sapiens, UniProt P08684);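 further: CYP3A4 tested as one member of a cytochrome P450 panel screen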
Cytochrome P450 1A2 = target: T3, Cytochrome P450 1A2 (Homo sapiens, UniProt P05177);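 further: PubChem cytochrome P450 panel assay, CYP1A2 panel member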
T3 sequence (P05177 whole entry): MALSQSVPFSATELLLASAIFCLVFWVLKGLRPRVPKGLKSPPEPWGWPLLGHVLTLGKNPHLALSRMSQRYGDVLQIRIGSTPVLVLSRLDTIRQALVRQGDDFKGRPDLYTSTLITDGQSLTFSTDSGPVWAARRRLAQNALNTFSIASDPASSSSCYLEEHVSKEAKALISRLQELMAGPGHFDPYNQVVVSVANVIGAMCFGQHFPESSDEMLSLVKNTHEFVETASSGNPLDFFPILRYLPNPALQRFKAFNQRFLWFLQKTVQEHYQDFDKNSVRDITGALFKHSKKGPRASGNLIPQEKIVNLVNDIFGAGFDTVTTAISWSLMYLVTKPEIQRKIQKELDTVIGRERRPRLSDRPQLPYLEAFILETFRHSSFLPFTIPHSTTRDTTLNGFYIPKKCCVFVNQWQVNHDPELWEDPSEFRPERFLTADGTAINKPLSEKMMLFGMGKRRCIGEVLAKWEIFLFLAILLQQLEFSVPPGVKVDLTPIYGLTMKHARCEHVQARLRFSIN

NS3 = NS3 (Hepatitis C virus, UniProt A3EZJ3); assay: PubChem AID 2173; parameters: species or system Hepacivirus hominis
[6] = HEK-293T cell viability reduction – luminescence, B-cell screen hits, cytotoxicity control for BCR NF-kB inhibitor project, dose response (AID 489021); type: functional, cell-based;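 further: HEK-293T cells carrying an NF-kB luciferase reporter; cells exposed to compound for about 14 hours before viability readout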
[7] = target: Serine/threonine-protein phosphatase PP1-alpha catalytic subunit (Homo sapiens, UniProt P62136); assay: inhibition of protein phosphatase 1 activity – biochemical, fluorescence, dose response (AID 2403);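 further: phosphatase turnover of OMFP into fluorescent 3-O-methylfluorescein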
Chain of Serine/threonine-protein phosphatase PP1-alpha catalytic subunit (P62136 whole entry): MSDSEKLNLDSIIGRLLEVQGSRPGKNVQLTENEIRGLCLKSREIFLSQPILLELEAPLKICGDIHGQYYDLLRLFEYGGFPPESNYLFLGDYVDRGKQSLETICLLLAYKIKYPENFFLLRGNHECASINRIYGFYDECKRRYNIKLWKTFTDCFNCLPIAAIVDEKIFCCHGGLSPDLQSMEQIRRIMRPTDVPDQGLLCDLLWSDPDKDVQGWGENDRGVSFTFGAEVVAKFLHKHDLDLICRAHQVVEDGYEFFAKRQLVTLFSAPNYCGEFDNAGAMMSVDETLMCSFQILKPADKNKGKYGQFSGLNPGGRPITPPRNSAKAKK

[8] = target: Serine/threonine-protein phosphatase (Homo sapiens, UniProt Q9BPW0); assay: Counterscreen for inhibitors of PP1: fluorescence-based biochemical high throughput dose response assay to identify inhibitors of Protein Phosphatase 5 (PP5). [Related pubchem assays: 2034 (Summary (PP5 inhibitors)), 1987 (PP5 inhibitors in singlate), 2235 (PP1 inhibitors in singlate)]
[9] = target: T4, Neuropeptides B/W receptor type 1 (Homo sapiens, UniProt P48145); assay: Fluorescence-based dose response cell-based high throughput screening assay to identify antagonists of the G-protein coupled receptor 7 (GPR7). [Related pubchem assays: 1952 (Screening assay (GPR7 antagonists).), 1880 (Summary AID.)]; type: functional
T4 sequence (P48145 whole entry): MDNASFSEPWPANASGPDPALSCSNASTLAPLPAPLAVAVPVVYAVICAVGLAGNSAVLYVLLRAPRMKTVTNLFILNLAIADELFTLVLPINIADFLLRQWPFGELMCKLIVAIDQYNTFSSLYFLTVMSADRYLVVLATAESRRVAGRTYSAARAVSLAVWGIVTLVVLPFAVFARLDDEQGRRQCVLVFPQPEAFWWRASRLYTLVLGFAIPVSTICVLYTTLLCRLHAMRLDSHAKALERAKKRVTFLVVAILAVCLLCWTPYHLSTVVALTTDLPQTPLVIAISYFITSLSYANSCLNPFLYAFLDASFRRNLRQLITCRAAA

[10] = target: Melanin-concentrating hormone receptor 1 (Homo sapiens, UniProt Q99705); assay: Fluorescence-based counterscreen for antagonists of the G-protein coupled receptor 7 (GPR7): cell-based high throughput dose response assay to identify antagonists of the melanin-concentrating hormone receptor 1 (MCHR1).; type: functional
Chain of Melanin-concentrating hormone receptor 1 (Q99705 whole entry): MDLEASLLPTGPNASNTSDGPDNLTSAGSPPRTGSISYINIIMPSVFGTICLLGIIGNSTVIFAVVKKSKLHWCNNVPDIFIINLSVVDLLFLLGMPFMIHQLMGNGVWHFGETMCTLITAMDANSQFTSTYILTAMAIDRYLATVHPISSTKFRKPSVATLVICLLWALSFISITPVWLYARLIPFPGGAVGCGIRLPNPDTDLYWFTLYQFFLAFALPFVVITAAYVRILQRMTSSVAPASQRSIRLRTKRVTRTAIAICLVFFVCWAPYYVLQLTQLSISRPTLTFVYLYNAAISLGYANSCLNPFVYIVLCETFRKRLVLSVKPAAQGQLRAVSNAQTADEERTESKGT

[11] = target: T5, Eukaryotic translation initiation factor 2-alpha kinase 3 (Homo sapiens, UniProt Q9NZJ5); assay: Dose response cell-based high-throughput screening assay to measure PERK inhibition. [Related pubchem assays: 1416 ]; type: functional
T5 sequence (Q9NZJ5 whole entry): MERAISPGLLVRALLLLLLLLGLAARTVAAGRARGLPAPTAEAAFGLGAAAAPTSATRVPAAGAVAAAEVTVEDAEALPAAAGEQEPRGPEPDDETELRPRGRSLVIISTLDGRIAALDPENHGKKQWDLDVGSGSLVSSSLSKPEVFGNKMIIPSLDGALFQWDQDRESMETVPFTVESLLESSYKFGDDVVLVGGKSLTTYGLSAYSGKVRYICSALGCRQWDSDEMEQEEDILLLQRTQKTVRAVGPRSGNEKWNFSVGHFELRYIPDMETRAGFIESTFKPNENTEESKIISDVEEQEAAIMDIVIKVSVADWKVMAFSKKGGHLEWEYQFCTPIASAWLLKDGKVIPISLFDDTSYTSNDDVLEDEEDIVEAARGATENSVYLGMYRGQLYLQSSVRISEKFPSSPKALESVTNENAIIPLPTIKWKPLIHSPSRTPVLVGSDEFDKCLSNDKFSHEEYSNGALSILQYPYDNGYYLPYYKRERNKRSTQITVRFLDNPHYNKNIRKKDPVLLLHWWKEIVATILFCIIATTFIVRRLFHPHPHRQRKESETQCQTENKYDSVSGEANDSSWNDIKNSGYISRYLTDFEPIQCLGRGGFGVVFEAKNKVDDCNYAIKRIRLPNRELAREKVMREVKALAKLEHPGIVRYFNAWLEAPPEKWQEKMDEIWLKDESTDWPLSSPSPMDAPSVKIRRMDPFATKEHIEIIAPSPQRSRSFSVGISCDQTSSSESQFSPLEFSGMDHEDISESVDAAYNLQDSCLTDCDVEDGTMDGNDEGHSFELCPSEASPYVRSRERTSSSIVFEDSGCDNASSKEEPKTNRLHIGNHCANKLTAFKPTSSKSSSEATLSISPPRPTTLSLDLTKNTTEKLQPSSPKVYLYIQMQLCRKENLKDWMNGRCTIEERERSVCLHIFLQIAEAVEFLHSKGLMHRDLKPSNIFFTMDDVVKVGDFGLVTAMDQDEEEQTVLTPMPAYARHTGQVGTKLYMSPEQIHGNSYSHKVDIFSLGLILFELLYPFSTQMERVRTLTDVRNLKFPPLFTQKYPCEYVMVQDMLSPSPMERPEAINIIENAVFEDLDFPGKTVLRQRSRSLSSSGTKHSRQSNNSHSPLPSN

[12] = target: T5, Eukaryotic translation initiation factor 2-alpha kinase 3; assay: Counterscreen assay for PERK inhibitors: Dose response cell-based high throughput screening assay to measure inhibition of PERK at 6 hours. [Related pubchem assays: 1522, 1416 ]; type: functional
[13] = viability of PTEN-deleted HCT116 cells – cell-based, HCT116 PTEN knockout, dose response (AID 1047); type: functional;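 further: HCT116 colon tumor cells with PTEN knocked out; cells exposed to compound for 60 hours before readout; potency for loss of cell viability measured by luminescence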
[14] = target: Neurotensin receptor type 1 (Homo sapiens, UniProt P30989); type: functional;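 further: Image-based confirmatory dose-response assay measuring agonist activity at NTR1; NTR1-expressing U2OS osteosarcoma cells imaged for beta-arrestin GFP spot formation; agonist potency where compounds increase beta-arrestin recruitment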
Chain of Neurotensin receptor type 1 (P30989 whole entry): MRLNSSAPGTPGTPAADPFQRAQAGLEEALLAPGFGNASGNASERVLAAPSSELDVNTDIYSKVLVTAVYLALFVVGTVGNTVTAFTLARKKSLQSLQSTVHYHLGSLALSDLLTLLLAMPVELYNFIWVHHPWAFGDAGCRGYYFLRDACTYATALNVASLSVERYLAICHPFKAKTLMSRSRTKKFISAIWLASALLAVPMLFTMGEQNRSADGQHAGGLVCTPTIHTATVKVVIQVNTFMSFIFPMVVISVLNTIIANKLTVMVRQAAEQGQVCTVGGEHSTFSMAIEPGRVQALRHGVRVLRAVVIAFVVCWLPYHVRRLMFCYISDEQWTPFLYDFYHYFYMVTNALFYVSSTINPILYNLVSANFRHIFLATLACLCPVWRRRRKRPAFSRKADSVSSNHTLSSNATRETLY

X-box-binding protein 1 = X-box-binding protein 1 (Homo sapiens, UniProt P17861); type: functional, Cricetulus griseus;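 further: confirmatory dose-response counter-screen serving a CHOP assay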
Chain of X-box-binding protein 1 (P17861 whole entry): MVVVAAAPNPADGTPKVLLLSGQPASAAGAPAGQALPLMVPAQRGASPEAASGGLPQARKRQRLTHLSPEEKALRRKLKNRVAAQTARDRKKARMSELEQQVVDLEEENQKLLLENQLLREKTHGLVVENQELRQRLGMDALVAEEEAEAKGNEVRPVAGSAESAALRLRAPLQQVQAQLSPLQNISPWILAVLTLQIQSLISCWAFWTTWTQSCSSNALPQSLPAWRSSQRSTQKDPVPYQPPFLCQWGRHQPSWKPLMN

[15] = viability of HCT116 lacking mutant beta-catenin – cell-based, human colon tumor, dose response (AID 1045); type: functional;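 further: HCT116 colon tumor cells with beta catenin knocked out; cells exposed to compound for 60 hours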
[16] = target: T6, Alkaline phosphatase, tissue-nonspecific isozyme (Homo sapiens, UniProt P05186)
T6 sequence (P05186 whole entry): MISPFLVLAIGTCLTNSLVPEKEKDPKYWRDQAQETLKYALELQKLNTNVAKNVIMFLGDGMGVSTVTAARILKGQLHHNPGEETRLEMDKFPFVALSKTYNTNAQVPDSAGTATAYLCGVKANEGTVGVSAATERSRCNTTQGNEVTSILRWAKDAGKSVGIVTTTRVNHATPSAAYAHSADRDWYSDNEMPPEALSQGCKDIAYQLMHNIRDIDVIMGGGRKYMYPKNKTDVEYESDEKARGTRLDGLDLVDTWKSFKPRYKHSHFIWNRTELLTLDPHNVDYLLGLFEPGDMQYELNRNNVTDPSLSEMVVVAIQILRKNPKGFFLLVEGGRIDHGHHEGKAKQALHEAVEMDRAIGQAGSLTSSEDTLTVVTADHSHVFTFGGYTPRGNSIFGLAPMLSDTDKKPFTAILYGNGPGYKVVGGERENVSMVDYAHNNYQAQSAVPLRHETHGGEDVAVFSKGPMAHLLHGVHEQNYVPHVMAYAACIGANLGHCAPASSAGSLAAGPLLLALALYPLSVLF

[17] = target: T7, Probable nicotinate-nucleotide adenylyltransferase (Staphylococcus aureus (strain N315), UniProt P65502); type: functional, Staphylococcus aureus subsp. aureus N315;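 on IC50 Mean: confirmatory dose-response retesting of NadD inhibitor hits first found in an ultra-high-throughput screen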
[18] = target: T7, Probable nicotinate-nucleotide adenylyltransferase; type: functional, Staphylococcus aureus subsp. aureus N315; settings: read-out: IC50_Mean
[19] = target: Mothers against decapentaplegic homolog 3 (Homo sapiens, UniProt P84022); assay: blockers of Smad3 complex formation in lysate – cell lysate, secondary confirmation, chemiluminescent ELISA, HEK293 lysate, dose response (AID 1058); type: functional
Chain of Mothers against decapentaplegic homolog 3 (P84022 whole entry): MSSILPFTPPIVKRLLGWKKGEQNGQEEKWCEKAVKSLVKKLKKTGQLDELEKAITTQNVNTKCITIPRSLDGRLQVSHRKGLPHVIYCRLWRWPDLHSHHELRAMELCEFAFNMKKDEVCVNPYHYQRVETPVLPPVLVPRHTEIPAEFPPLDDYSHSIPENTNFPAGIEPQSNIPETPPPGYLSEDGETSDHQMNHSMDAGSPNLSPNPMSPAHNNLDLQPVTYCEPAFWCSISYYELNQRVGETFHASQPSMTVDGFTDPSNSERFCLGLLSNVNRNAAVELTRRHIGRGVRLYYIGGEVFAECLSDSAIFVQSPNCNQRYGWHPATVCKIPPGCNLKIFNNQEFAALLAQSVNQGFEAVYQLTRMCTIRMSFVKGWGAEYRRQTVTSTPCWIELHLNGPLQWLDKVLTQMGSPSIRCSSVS

[20] = target: G2/mitotic-specific cyclin-B1 (Homo sapiens, UniProt P14635); assay: HeLa cell cycle G2/M accumulation – FACS, mechanism study for Wee1 degradation inhibitor project, late-stage follow-up, panel member Cyclin B Degradation (AID 2088)
Wee1-like protein kinase = Wee1-like protein kinase (Homo sapiens, UniProt P30291); assay: HeLa cell cycle G2/M accumulation – FACS, mechanism study for Wee1 degradation inhibitor project, late-stage follow-up, panel member Wee1 Degradation (AID 2088)
Chain of Wee1-like protein kinase (P30291 whole entry): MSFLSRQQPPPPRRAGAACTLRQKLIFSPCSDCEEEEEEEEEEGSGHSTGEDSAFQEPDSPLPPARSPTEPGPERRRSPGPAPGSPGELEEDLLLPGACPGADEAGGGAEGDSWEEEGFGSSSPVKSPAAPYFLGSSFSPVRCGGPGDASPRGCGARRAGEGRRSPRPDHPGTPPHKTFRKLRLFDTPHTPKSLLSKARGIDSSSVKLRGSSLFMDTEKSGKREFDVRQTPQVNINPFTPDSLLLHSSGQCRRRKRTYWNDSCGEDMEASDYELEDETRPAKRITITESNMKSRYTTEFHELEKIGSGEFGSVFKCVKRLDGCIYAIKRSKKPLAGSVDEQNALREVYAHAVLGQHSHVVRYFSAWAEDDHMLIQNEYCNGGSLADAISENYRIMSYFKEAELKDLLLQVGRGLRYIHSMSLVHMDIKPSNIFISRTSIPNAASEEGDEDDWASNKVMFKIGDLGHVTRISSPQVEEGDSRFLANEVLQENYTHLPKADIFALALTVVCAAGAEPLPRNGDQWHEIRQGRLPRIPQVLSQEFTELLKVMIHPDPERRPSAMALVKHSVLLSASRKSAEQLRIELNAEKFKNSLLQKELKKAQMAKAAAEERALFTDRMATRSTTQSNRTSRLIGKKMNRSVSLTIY

[21] = target: Signal transducer and activator of transcription 3 (Homo sapiens, UniProt P40763); assay: STAT3 activation with BCL3 mRNA and toxicity – cell-based, […], BCL3 qPCR, cytotoxicity, late-stage follow-up, panel member STAT3 Activation (AID 2049)

Structure (SMILES): Nc1sc(-c2ccccc2)cc1-c1nnc(S)n1C1CCCCC1
EC50 (HEK293): 22.5 µM (not active) | EC50 [1]: 24.4 µM (not active) | EC50 [2]: 30.8 µM (not active)

Structure (SMILES): CC(C)[C@@H]1OC(=O)\C=C/C=C\C=C/C=C\C=C/C[C@@H](O)[C@H](C)[C@@H](O)C[C@H](O)C[C@H](O)C[C@H](O)C[C@H](O)C[C@H](O)C[C@H](O)/C=C\[C@@H]1C
AC50 (Cytochrome P450 2D6): 0.316 µM (inconclusive)

Structure (SMILES): Cc1cc(Br)ccc1SCC(=O)OCC(=O)NCc1ccco1
IC50 [4]: 9.37 µM (active) | IC50 [5]: 2.93 µM (active)

Structure (SMILES): CCN(CC)CCOC(=O)c1ccc(NC(=O)COc2cc(=O)n(CC)c3ccccc23)cc1
IC50 [6]: > 80 µM (inactive)

Structure (SMILES): O=C(O)c1cc(-c2ccc(Cl)c(Cl)c2)n(-c2ccc(F)cc2)n1
IC50 [7]: 8.13 µM (active) | IC50 [8]: > 67 µM (not active)

Structure (SMILES): Cc1cc2c3c(c1)C(C)(c1ccccc1)CC(C)(C)N3C(=O)C21C(C#N)=C(N)OC2=C1C(=O)CC(C)(C)C2 (stereo not drawn)
EC50 [13]: 19.4 µM (active) | EC50 [14]: 22 µM (inactive) | Absolute IC50 (XBP1) (X-box-binding protein 1): 10 µM | EC50 [15]: 20.4 µM (active)

Structure (SMILES): COCc1cc(O)n2nc(-c3ccsc3-n3c(C)ccc3C)cc2n1
EC50 [16]: > 100 µM (not active) | IC50 [17]: 13.3 µM (active) | IC50 [18]: 51.3 µM (active)

Structure (SMILES): COc1cccc(NC(=O)c2cc(C3CC3)on2)c1
EC50 [21]: > 5.57 µM (inactive)

Continued, values first:

EC50 [3]: > 10 µM (not active)
Structure (SMILES): CC1CCC(C(=O)NC(C(=O)NCCCN2CCOCC2)C(C)C)CC1 (stereo not drawn)

AC50 (Cytochrome P450 3A4): 20 µM (inconclusive) | AC50 (Cytochrome P450 1A2): 15.8 µM (inconclusive) | IC50 (NS3): 14.2 µM (not active)
Structure (SMILES): Cc1ccc(C)c(N2CCN(C(=O)c3ccc4nc(-c5ccco5)c(-c5ccco5)nc4c3)CC2)c1

IC50 [9]: > 43.8 µM (not active) | IC50 [10]: > 43.8 µM (not active)
Structure (SMILES): O=C(CSc1nnc(Cc2ccccc2)n1Cc1ccco1)NC1CCCC1

EC50 [11]: > 55.7 µM (not active) | EC50 [12]: > 55.7 µM (not active)
Structure (SMILES): Cc1ccnc(NS(=O)(=O)c2cc(C(F)(F)F)ccc2Cl)c1

IC50 [19]: > 50 µM (not active)
Structure (SMILES): COC(=O)c1ccccc1C1c2ccc(O)c(O)c2OC2=C(O)C(=O)C=CC21 (stereo not drawn)

EC50 [20]: > 49.7 µM (inactive) | EC50 (Wee1-like protein kinase): > 49.7 µM (inactive)
Structure (SMILES): COC(=O)c1ccccc1NC(=O)CCCOc1cc(=O)n(C)c2ccccc12
